# In patent US20260294863A1, “METHOD OF TREATING FIBROTIC-RELATED CONDITION” (YISSUM RESEARCH DEVELOPMENT COMPANY OF THE HEBREW …, priority 2023, published 2026):
# Entries after “also recorded” stand apart in the source; their conditions may differ.
# How the values were obtained:
# IL1β = assay: Secretion of IL1β from BzATP/LPS-activated microglia (ELISA); type: cell-based, Balb/C mice
# Procedure: (§1) Experiments were performed on primary microglial cells isolated from brains of neonatal Balb/C mice as previously described (Reichert and Rotshenker, 2003). The brains were stripped of their meninges and enzymatically dissociated. Cells were plated on Poly-L-lysine coated flasks for one week, re-plated for 1- to 2-hr on bacteriological plates and non-adherent cells were washed away. Microglia were propagated by incubation in 20% of medium, conditioned by the L-cell line that produces mouse-CSF. They were identified by morphology and positive immune-reactivity to P2y12, F4/80, complement receptor-3 and Galectin-3/MAC-2 (Reichert and Rotshenker 2003; Gitik et al. 2011).
# (§2) Cytokines were measured as previously described (Shamash et al. 2002) using ELISA Max deluxe set (Biolegend, CA, USA) for secreted TNFα and IL-6 proteins and ELISA DuoSet (R&D systems, UK) for secreted and cell associated IL-1β, according to manufacturer's instructions.
# (§3) The effect of ladostigil at concentrations of 1×10^−13 M to 1×10^−9 M on the secretion of cytokine proteins was assessed by adding it to microglia for 2 hr before LPS (0.75 μg/ml) and BzATP (400 μM). Other microglia were treated similarly with the steroid, budesonide as a reference standard at concentrations of 1× 10^−13 to 1× 10^−11 M. Measurements of cytokine secretion were performed 8 hrs after addition of LPS and BzATP. Since the levels of secreted IL-1β were still low, samples were concentrated 2- to 4-fold by an Amicon ultra-centrifugal filter device (Merck-Millipore, Ireland). ELISA was used to quantify the levels of cytokine proteins. Protein content in the microglia lysate was measured by Bradford and levels of cytokines were calculated and presented as pg/μg of microglial protein.
# IL6 = assay: Secretion of IL6 from BzATP/LPS-activated microglia (ELISA); type: cell-based, Balb/C mice; settings: all concentrations tested
# Procedure: as §1, §2, §3
# TNFα [1] = assay: Secretion of TNFα from BzATP/LPS-activated microglia (ELISA); type: cell-based, Balb/C mice; settings: all concentrations tested, added 2 hrs before BzATP and LPS, 0.1% BSA; p<0.01
# Procedure: as §1, §2, §3
# [2] = Mortality in bleomycin-induced lung fibrosis; type: in vivo, C57BL/6JOlaHsd mice; settings: bleomycin alone
# Procedure: The animal model of bleomycin-induced lung fibrosis is widely used to characterize the potential inhibitory effect of newly developed drugs (Distler et al. 2019). Experiments were performed in C57BL/6JOlaHsd male and female mice aged 12-13 weeks. Male mice weighed 23-27.3 g and female mice, 19.4-21.1 g. They were housed under pathogen-free conditions, up to 6 per cage, in IVC cages under a controlled temperature of 22-24° C., humidity and alternating 12-h light/dark cycles and provided with food and water ad libitum. […] Saline (2-3/sex) and bleomycin controls were anesthetized as described above. Bleomycin solution (0.25 mg/kg in 50 μl) was instilled into the lumen of the trachea as shown in a video by Ehrentraut et al. (2019). […] Mice were weighed daily and sacrificed on day 21. Bronchial fluid was collected as described in Ehrentraut et al. (2019). TNFα and IL-6 in the bronchial fluid lavage was measured by ELISA as described in the preceding section.
# skin sclerosis = assay: Dermal and hypodermal thickness in bleomycin-induced skin sclerosis; type: in vivo, C57BL/6 mice; settings: bleomycin treatment
# Procedure: (§4) Male C57BL/6 mice aged 8 weeks were housed under pathogen-free conditions at a controlled temperature of 22-24° C., humidity and alternating 12-h light/dark cycles and provided with food and water ad libitum. Skin sclerosis was induced as described by Ravanetti et al, (2020). A small incision was made in the skin at the back caudal to the scapulae and subcutaneous pocket was created into which an Alzet micro-osmotic pump was implanted, and the incision closed with two stiches and a surgical clip. The pumps contained bleomycin, (delivered at the rate of 60 U/kg body weight) or saline (control) and were removed 10 days after implantation. The mice were monitored daily until they recovered completely and weighed twice weekly from the beginning of the experiment.
# (§5) Ladostigil (10 mg/kg/day) was administered in the drinking fluid to 10 mice, housed 2/cage, from 3 days before bleomycin pump installation until the end of the experiment. The fluid intake of the mice was measured daily. The dose of ladostigil was adjusted accordingly. Bleomycin alone, (10 mice) and saline controls (6 mice) received regular drinking fluid.
# Skin was harvested on the gluteal region to avoid dermal fibrosis artifact due to proximity to the site of implant. For histological assessment, the samples were dehydrated in a graded ethanol series, clarified in xylene, and paraffin embedded. They were mounted on slides and paraffin was removed. Sections of 5 μm thickness were cut with a rotary microtome and stained with hematoxylin and eosin (H&E)
# [3] = Body weight in bleomycin-induced skin sclerosis; type: in vivo, C57BL/6 mice; settings: bleomycin, days 24-27
# Procedure: as §4, §5
# Egr1 = Egr1 in RAW cells activated by LPS; type: cell-based
# Procedure: (§6) RAW 264.7 cells were seeded at a density of 1×10^5 cells per well in 48-well culture plates and grown overnight in DMEM supplemented as indicated above. The wells were washed with PBS (pH 7.4). AN1284, prepared in sterile double distilled water and Budesonide (positive control) were added to give final concentrations ranging from 1× 10^−13-1×10^−7M in medium containing 2% FCS. The cells were incubated for 2 h at 37° C. prior to stimulation with LPS, 2.5 μg/mL from Escherichia coli (Sigma-Aldrich serotype 0111: B4). Supernatants were harvested after 8 hrs for measurement of TNF-α and 24 h for IL-6. TNF-α and IL-6 protein were detected by a commercial ELISA kit (Biolegend, San Diego, CA, USA) according to the manufacturer's instructions. Each concentration of each compound was tested in two-three separate experiments in 6 wells per concentration.
# (§7) RAW 264.7 cells were lysed in 0.1 ml of buffer containing 150 mM Tris-Cl (pH 6.8), 10% Glycerol, 0.6% SDS, Bromophenol Blue and 100 mM β-Mercaptoethanol. Lysates were collected and heated at 95° C. for 5 min, then centrifuged for 3 min at 2,240 g. Supernatants were used for gel separation. Protein concentration of the lysates was determined by using Coomassie Brilliant Blue staining. […] Molecular changes were assessed semi-quantitatively after incubation with primary antibodies for relevant proteins.
# [4] = Body weight in bleomycin-induced lung fibrosis; type: in vivo, C57BL/6JOlaHsd mice; settings: AN1284 2.5 mg/kg/day, days 11 and 14 after bleomycin, males
# Procedure: (§8) The animal model of bleomycin-induced lung fibrosis is widely used to characterize the potential inhibitory effect of newly developed drugs (Distler et al. 2019). Experiments were performed in C57BL/6JOlaHsd male and female mice aged 12-13 weeks. Male mice weighed 23-27.3 g and female mice, 19.4-21.1 g. They were housed under pathogen-free conditions, up to 6 per cage, in IVC cages under a controlled temperature of 22-24° C., humidity and alternating 12-h light/dark cycles and provided with food and water ad libitum. In order to minimize the stress of daily injection, ladostigil (5 mg/Kg/day) was administered by micro-osmotic pumps, implanted subcutaneously under ketamine/xylazine anesthesia, 5 days before administration of bleomycin, and delivered for 3 weeks to mice of each sex. Saline (2-3/sex) and bleomycin controls were anesthetized as described above. Bleomycin solution (0.25 mg/kg in 50 μl) was instilled into the lumen of the trachea as shown in a video by Ehrentraut et al. (2019). […] Mice were weighed daily and sacrificed on day 21. Bronchial fluid was collected as described in Ehrentraut et al. (2019). TNFα and IL-6 in the bronchial fluid lavage was measured by ELISA as described in the preceding section.
# (§9) Experiments were performed in C57BL/6JOlaHsd male mice aged 12-13 weeks as described for ladostigil. AN1284 (2.5 mg/kg/day) was administered by micro-osmotic pumps, implanted subcutaneously under ketamine/xylazine anesthesia, 5 days before administration of bleomycin and delivered for 3 weeks. Mice were weighed daily, sacrificed on day 21 and bronchial fluid was collected. Fibrosis was measured by staining with Sirius red as described for ladostigil. TNFα and IL-6 in the bronchial fluid lavage was measured by ELISA as described for ladostigil.
# [5] = tested on: Aryl hydrocarbon receptor (AhR); settings: 1 mg/kg/day, two months, NASH mice; cited from earlier work
# NLRP3 = NLRP3 in RAW cells activated by LPS; type: cell-based
# Procedure: as §6, §7
# IL-6 = IL-6 in bronchial fluid, bleomycin-induced lung fibrosis (ELISA); type: in vivo, C57BL/6JOlaHsd mice; settings: AN1284 2.5 mg/kg/day, bleomycin, males; 2.5 mg/kg/day
# Procedure: (§10) The animal model of bleomycin-induced lung fibrosis is widely used to characterize the potential inhibitory effect of newly developed drugs (Distler et al. 2019). Experiments were performed in C57BL/6JOlaHsd male and female mice aged 12-13 weeks. Male mice weighed 23-27.3 g and female mice, 19.4-21.1 g. They were housed under pathogen-free conditions, up to 6 per cage, in IVC cages under a controlled temperature of 22-24° C., humidity and alternating 12-h light/dark cycles and provided with food and water ad libitum. In order to minimize the stress of daily injection, ladostigil (5 mg/Kg/day) was administered by micro-osmotic pumps, implanted subcutaneously under ketamine/xylazine anesthesia, 5 days before administration of bleomycin, and delivered for 3 weeks to mice of each sex. Saline (2-3/sex) and bleomycin controls were anesthetized as described above. Bleomycin solution (0.25 mg/kg in 50 μl) was instilled into the lumen of the trachea as shown in a video by Ehrentraut et al. (2019). […] TNFα and IL-6 in the bronchial fluid lavage was measured by ELISA as described in the preceding section.
# (§11) Experiments were performed in C57BL/6JOlaHsd male mice aged 12-13 weeks as described for ladostigil. […] Fibrosis was measured by staining with Sirius red as described for ladostigil. TNFα and IL-6 in the bronchial fluid lavage was measured by ELISA as described for ladostigil.
# [6] = tested on: LPS-activated macrophages; settings: cited from earlier work
# [7] = tested on: bleomycin-induced lung fibrosis; assay: Lung fibrosis score / collagen content in bleomycin-induced lung fibrosis; type: in vivo, C57BL/6JOlaHsd mice
# Procedure: as §8
# Specimens taken from the left lung were embedded in paraffin and cut into 5 μm-thick slices. They were put on slides and paraffin was removed. They were rehydrated and stained with a solution of Sirius red (100 mg/100 ml of [COMPOUND LEFT OUT], rinsed in distilled water until clear, dehydrated and mounted in a resinous medium. The red stain (also called “Sirius red” stain) is one of the best understood histochemical techniques. It relies on the birefringent properties of collagen and is much more specific than the other common collagen stains, Pulmonary fibrosis was evaluated on a score of 0-4 on 15-20 different fields taken from each lung section, according to the area and intensity of fibrotic staining in the field, excluding that in blood vessels. Two independent scientists blinded to the treatment performed the analysis. For TGFβ1 staining, slides were deparaffinized and rehydrated. Antigen retrieval was performed in Tris-based buffer, pH 9.0. Endogenous peroxidase activity was quenched by incubation in 3% H2O2. The tissue was permeabilized with Triton X-100 0.1% in PBS. After blocking, sections were incubated with primary antibody: diluted rabbit recombinant monoclonal TGFβ1 antibody (Abcam ab215715) over night, at 4° C. Slices were further incubated with the secondary antibody: ImmPRESS®-HRP Goat Anti-Rabbit IgG Polymer Detection Kit, Peroxidase (Vector labs VE-MP-7451-15) at room temperature. For color development, sections were incubated in peroxidase substrate solution DAB, at room temperature until desired stain intensity developed. They were then counterstained with filtered hematoxylin and cosin, cleared and mounted.
# as §9
# TNFα [8] = assay: TNFα in bronchial fluid, bleomycin-induced lung fibrosis (ELISA); type: in vivo, C57BL/6JOlaHsd mice; settings: AN1284 2.5 mg/kg/day, bleomycin, males; 2.5 mg/kg/day
# Procedure: as §10, §11
# [9] = tested on: cytotoxicity resulting from oxidative stress; settings: cited from earlier work
# [10] = tested on: non-alcoholic steatohepatitis (NASH); settings: 1 mg/kg/day, two months, micro-osmotic pumps; cited from earlier work
# Nrf2 = Nrf2 in RAW cells activated by LPS; type: cell-based
# Procedure: as §6, §7
# Activator protein-1 = settings: cited from earlier work
# MAPK p38 = settings: cited from earlier work
compound,measurement,setting,value
"CCCC1O[C@@H]2C[C@H]3[C@@H]4CCC5=CC(=O)C=C[C@]5(C)[C@H]4[C@@H](O)C[C@]3(C)[C@]2(C(=O)CO)O1 (stereo partly drawn) [budesonide, reference compound]",reduction of IL1β release,"IL1β; all concentrations tested, added 2 hrs before BzATP and LPS, 0.1% BSA, p<0.01",reduced the 3 cytokines significantly
same,reduction of IL1β compared with reduction of TNFα,"IL1β; ladostigil 1×10^−9 M, budesonide 1×10^−11 M",greater than that of TNFα
same,reduction of IL6 release,"IL6; added 2 hrs before BzATP and LPS, 0.1% BSA, p<0.01",reduced the 3 cytokines significantly
same,reduction of IL6 compared with reduction of TNF,IL6; p<0.001,greater than those of TNF
same,reduction of TNFα release,TNFα [1],reduced the 3 cytokines significantly
bleomycin [reference compound],mortality,"[2]; females, days 7 to 17 (6/38)",16%
same,mortality,"[2]; males, days 16-19 (5/16)",31%
same,hypodermis thickness change caused,skin sclerosis,thinning of the hypodermis
same,skin (dermal) thickness change caused,skin sclerosis,thickening
same,weight gain compared with saline,[3],smaller increase in weight
"CC(C)NCCCN1CCc2ccccc21.Cl.Cl [AN1284, 3-(indolin-1-yl)-N-isopropylpropan-1-amine 2HCl]",Egr1,"Egr1; LPS + AN1284 0.1 nM, LPS + vehicle 2.7",1.3
same,EGR1,Egr1; LPS-activated macrophages,reduced ERG1 in macrophages
same,body weight loss,[4],reduced body weight loss
same,activation of AhR,[5],activation of the Aryl hydrocarbon receptor (AhR)
same,NLRP3,"NLRP3; LPS + AN1284 0.1 nM, LPS + vehicle 1.6",1.1
same,expression of NLRP3,NLRP3; LPS-activated RAW cells,effectively reduce expression of NLRP3
same,IL-6 in bronchial fluid,IL-6,does not affect levels of pro-inflammatory cytokines; also recorded: did not reduce
same,release of pro-inflammatory cytokines,[6],reduced the release of pro-inflammatory cytokines
same,collagen levels / fibrosis score,"[7]; AN1284 2.5 mg/kg/day by micro-osmotic pumps, males",reduced fibrosis score
same,fibrosis (overall conclusion),[7]; bleomycin-induced lung fibrosis murine model,shown to reduce fibrosis
same,TNFα in bronchial fluid,TNFα [8],does not affect levels of pro-inflammatory cytokines; also recorded: did not reduce
same,cytotoxicity resulting from oxidative stress,[9],inhibited cytotoxicity
same,"steatosis, lipogenesis, and fibrosis",[10],"attenuated steatosis, lipogenesis, and fibrosis"
same,Nrf2,"Nrf2; LPS + AN1284 0.1 nM, LPS + vehicle 2.3",1.6
same,expression of Nrf2,Nrf2; LPS-activated RAW cells,decreased the expression of Nrf2
same,nuclear translocation of Activator protein-1,Activator protein-1,inhibiting phosphorylation of MAPK p38 and nuclear translocation of Activator protein-1
same,phosphorylation of MAPK p38,MAPK p38,inhibiting phosphorylation of MAPK p38
